US6914045B2, “Glycopeptide antibiotics” (Wyeth Holdings Corporation, priority 2001, dated 2005)
≈ marks a conversion by molar mass, not a printed value.

Experiments:
Enterococcus sp. = experiment: in vitro antibacterial evaluation, MIC by broth dilution; format: cell-based; conditions: broth dilution, 18 hours at 35° C.
Procedure, shortened: (§1)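 Test organisms, which included recent clinical isolates resistant to methicillin, penicillin and/or vancomycin, were inoculated at 5×10^5 CFU/mL into Muller-Hinton II […] containing antibiotic at 64-0.06 μg/mL. Minimum inhibitory concentrations were then read as the lowest level inhibiting growth.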

Staphylococcus sp. = experiment: as above; format: cell-based; conditions: broth dilution, 18 hours at 35° C.
Procedure, shortened: as §1

Streptococcus sp. = experiment: as above; format: cell-based; conditions: broth dilution, 18 hours at 35° C.
Procedure, shortened: as §1

[1] = clinical pathology (serum clinical chemistry) in mice; format: in vivo; conditions: CD-1 mice, 20 mg/kg intravenously daily for 9 days, sera day 10
Procedure: 20-day-old CD-1 mice were divided into a vehicle control group (5 mice) and a treatment group (5 mice). Samples of glycopeptide antibiotics were administered at 20 mg/kg intravenously daily for 9 days.

[2] = anatomic pathology (histopathology of heart and kidney) in mice; format: in vivo; conditions: CD-1 mice, 20 mg/kg intravenously daily for 9 days, necropsy day 10, microscopic histopathology
Procedure: Samples of tissues from necropsied mice were formalin-fixed, paraffin-embedded, sectioned, stained with hematoxylin and eosin, and examined microscopically. Histopathologic findings were recorded. These findings were subjectively graded on a scale corresponding to slight, mild, moderate, marked and severe as compared to untreated controls.

Escherichia coli = experiment: in vitro antibacterial evaluation, MIC by broth dilution; format: cell-based; conditions: 18 hours at 35° C.
Procedure, shortened: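 MIC is the lowest antibiotic concentration (tested 64-0.06 μg/mL) preventing growth of a 5×10^5 CFU/mL inoculum. Determined by broth dilution in Mueller-Hinton II medium following NCCLS standard M7-A2.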

## CC(c1ccccc1)C1NC(=O)CNC(=O)C(CO)NC(=O)C(C(O)C2CN(CCCCCCCCCCCCO)C(=N)N2C2OC(CO)C(O)C(O)C2O)NC(=O)C(C(O)C2CNC(=N)N2)NC(=O)C(Cc2ccc(OC3OC(CO)C(OC4OC(CO)C(O)C(O)C4O)C(O)C3O)cc2)NC1=O (stereo not drawn) [Example 61, Cyclo[glycyl-β-methylphenylalanyl-O-(4-O-hexopyranosylhexopyranosyl)tyrosl-3-(2-iminoimidazolidin-4-yl)seryl-3-[3-hexopyranosyl-1-(12-hydroxydodecyl)-2-iminoimidazolidin-4-yl]-serylseryl]]
Enterococcus sp.; Enterococcus avium (GC 4558)
  MIC Enterococcus avium (GC 4558): 64 µg/mL (≈ 43.3 µM)
Enterococcus sp.; Enterococcus faecalis (ATCC 29212)
  MIC Enterococcus faecalis (ATCC 29212): 128 µg/mL (≈ 86.5 µM)
Enterococcus sp.; Enterococcus faecalis (GC 4552)
  MIC Enterococcus faecalis (GC 4552): 128 µg/mL (≈ 86.5 µM)
Enterococcus sp.; Enterococcus faecalis (GC 4553)
  MIC Enterococcus faecalis (GC 4553): 128 µg/mL (≈ 86.5 µM)
Enterococcus sp.; Enterococcus faecalis (GC 4554)
  MIC Enterococcus faecalis (GC 4554): 128 µg/mL (≈ 86.5 µM)
Enterococcus sp.; Enterococcus faecalis (GC 6189)
  MIC Enterococcus faecalis (GC 6189): 128 µg/mL (≈ 86.5 µM)
Enterococcus sp.; Enterococcus faecium (GC 2243)
  MIC Enterococcus faecium (GC 2243): >128 µg/mL
Enterococcus sp.; Enterococcus faecium (GC 4556)
  MIC Enterococcus faecium (GC 4556): 128 µg/mL (≈ 86.5 µM)
Enterococcus sp.; Enterococcus faecium (GC 4557)
  MIC Enterococcus faecium (GC 4557): 128 µg/mL (≈ 86.5 µM)
Enterococcus sp.
  MIC Enterococcus avium (GC 4558): 64 µg/mL (≈ 43.3 µM)
  MIC Enterococcus faecalis (ATCC 29212): 128 µg/mL (≈ 86.5 µM)
  MIC Enterococcus faecalis (GC 2242): 128 µg/mL (≈ 86.5 µM)
  MIC Enterococcus faecalis (GC 2691): 128 µg/mL (≈ 86.5 µM)
  MIC Enterococcus faecalis (GC 3059): 128 µg/mL (≈ 86.5 µM)
  MIC Enterococcus faecalis (GC 4552): 128 µg/mL (≈ 86.5 µM)
  MIC Enterococcus faecalis (GC 4553): 128 µg/mL (≈ 86.5 µM)
  MIC Enterococcus faecalis (GC 4554): 128 µg/mL (≈ 86.5 µM)
  MIC Enterococcus faecalis (GC 6189): 128 µg/mL (≈ 86.5 µM)
  MIC Enterococcus faecium (GC 2243): >128 µg/mL
  MIC Enterococcus faecium (GC 4556): 128 µg/mL (≈ 86.5 µM)
  MIC Enterococcus faecium (GC 4557): 128 µg/mL (≈ 86.5 µM)
Enterococcus sp.; strain GC 2242
  MIC Enterococcus faecalis (GC 2242): 128 µg/mL (≈ 86.5 µM)
Enterococcus sp.; strain GC 2691
  MIC Enterococcus faecalis (GC 2691): 128 µg/mL (≈ 86.5 µM)
Enterococcus sp.; strain GC 3059
  MIC Enterococcus faecalis (GC 3059): 128 µg/mL (≈ 86.5 µM)
Staphylococcus sp.; strain ATCC 29213
  MIC Staphylococcus aureus (ATCC 29213): >128 µg/mL
Staphylococcus sp.; strain GC 1131
  MIC Staphylococcus aureus (GC 1131): >128 µg/mL
Staphylococcus sp.; strain GC 3051
  MIC Staphylococcus aureus (GC 3051): >128 µg/mL
Staphylococcus sp.; strain GC 3053
  MIC Staphylococcus aureus (GC 3053): 128 µg/mL (≈ 86.5 µM)
Staphylococcus sp.; strain GC 4541
  MIC Staphylococcus aureus (GC 4541): >128 µg/mL
Staphylococcus sp.; strain GC 4542
  MIC Staphylococcus aureus (GC 4542): >128 µg/mL
Staphylococcus sp.; strain GC 4543
  MIC Staphylococcus aureus-SMITH (GC 4543): >128 µg/mL
Staphylococcus sp.; strain GC 4544
  MIC Staphylococcus aureus (GC 4544): >128 µg/mL
Staphylococcus sp.; strain GC 4545
  MIC Staphylococcus aureus (GC 4545): >128 µg/mL
Staphylococcus sp.; strain GC 4546
  MIC Staphylococcus haemolyticus (GC 4546): >128 µg/mL
Staphylococcus sp.; strain GC 4547
  MIC Coagulase Negative Staphylococcus (GC 4547): 128 µg/mL (≈ 86.5 µM)
Staphylococcus sp.; strain GC 4548
  MIC Coagulase Negative Staphylococcus (GC 4548): >128 µg/mL
Staphylococcus sp.; strain GC 4549
  MIC Coagulase Negative Staphylococcus (GC 4549): 128 µg/mL (≈ 86.5 µM)
Staphylococcus sp.; strain GC 4551
  MIC Coagulase Negative Staphylococcus (GC 4551): >128 µg/mL
Staphylococcus sp.; strain GC 6257
  MIC Coagulase Negative Staphylococcus (GC 6257): >128 µg/mL
Streptococcus sp.
  MIC Streptococcus agalactiae (GC 4564): 128 µg/mL (≈ 86.5 µM)
  MIC Streptococcus pneumoniae (ATCC 6301): 128 µg/mL (≈ 86.5 µM)
  MIC Streptococcus pneumoniae (GC 1894): 64 µg/mL (≈ 43.3 µM)
  MIC Streptococcus pneumoniae (GC 4565): 64 µg/mL (≈ 43.3 µM)
  MIC Streptococcus pyogenes (GC 4563): 128 µg/mL (≈ 86.5 µM)
Streptococcus sp.; strain ATCC 6301
  MIC Streptococcus pneumoniae (ATCC 6301): 128 µg/mL (≈ 86.5 µM)
Streptococcus sp.; strain GC 1894
  MIC Streptococcus pneumoniae (GC 1894): 64 µg/mL (≈ 43.3 µM)
Streptococcus sp.; strain GC 4563
  MIC Streptococcus pyogenes (GC 4563): 128 µg/mL (≈ 86.5 µM)
Streptococcus sp.; strain GC 4564
  MIC Streptococcus agalactiae (GC 4564): 128 µg/mL (≈ 86.5 µM)
Streptococcus sp.; strain GC 4565
  MIC Streptococcus pneumoniae (GC 4565): 64 µg/mL (≈ 43.3 µM)
[1]
  Clinical Chemistry (Day 10) % of Control, BUN: +157%
  Clinical Chemistry (Day 10) % of Control, Creatinine: +122%
[2]
  Anatomical Pathology (Day 10), Heart: 0
  Anatomical Pathology (Day 10), Kidney: +++
Escherichia coli
  MIC Escherichia coli (ATCC 25922): 128 µg/mL (≈ 86.5 µM)
  MIC Escherichia coli (GC 4559): 128 µg/mL (≈ 86.5 µM)
  MIC Escherichia coli (GC 4560): 8 µg/mL (≈ 5.41 µM)
